Where two headings read alike, the source gives them in different places.
Biological target: T1, Rhesus PDE2A3 (Macaca mulatta, UniProt B3VTJ2)
T1 construct: made in house; host or cells: AD293 cells, transient transfection, pcDNA3.3-TOPO; lysate supernatant used as enzyme
T1 sequence (B3VTJ2 1-941): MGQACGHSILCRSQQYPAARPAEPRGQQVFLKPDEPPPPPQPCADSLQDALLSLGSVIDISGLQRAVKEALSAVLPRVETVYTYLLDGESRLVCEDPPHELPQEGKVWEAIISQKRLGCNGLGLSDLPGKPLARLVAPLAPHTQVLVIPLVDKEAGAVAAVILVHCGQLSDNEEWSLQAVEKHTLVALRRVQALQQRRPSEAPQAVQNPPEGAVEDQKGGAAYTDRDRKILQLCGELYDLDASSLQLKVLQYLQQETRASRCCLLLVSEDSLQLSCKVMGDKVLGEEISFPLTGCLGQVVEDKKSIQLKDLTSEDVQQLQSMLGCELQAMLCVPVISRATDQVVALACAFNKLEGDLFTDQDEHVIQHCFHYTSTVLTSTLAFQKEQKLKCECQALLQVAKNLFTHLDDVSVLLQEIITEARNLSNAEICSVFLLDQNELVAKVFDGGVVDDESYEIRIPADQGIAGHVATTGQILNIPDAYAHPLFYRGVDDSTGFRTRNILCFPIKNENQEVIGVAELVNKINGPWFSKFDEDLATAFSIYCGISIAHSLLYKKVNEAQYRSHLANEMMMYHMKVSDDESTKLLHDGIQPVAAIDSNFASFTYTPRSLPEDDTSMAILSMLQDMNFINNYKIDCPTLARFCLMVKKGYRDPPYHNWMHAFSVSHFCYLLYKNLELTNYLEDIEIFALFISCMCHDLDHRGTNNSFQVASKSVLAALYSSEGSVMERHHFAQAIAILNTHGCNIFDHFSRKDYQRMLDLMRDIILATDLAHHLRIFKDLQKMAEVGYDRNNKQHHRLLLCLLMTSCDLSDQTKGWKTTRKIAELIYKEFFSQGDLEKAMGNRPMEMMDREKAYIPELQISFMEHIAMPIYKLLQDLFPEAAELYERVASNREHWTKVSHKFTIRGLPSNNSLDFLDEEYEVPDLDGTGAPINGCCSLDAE
Experiment: PDE2 fluorescence polarization (IMAP FP) inhibition assay, rhesus enzyme
Assay type: biochemical, rhesus macaque
Method in brief: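 Lysate of AD293 cells transiently expressing rhesus PDE2A3, diluted for ~20% substrate conversion, with 50 nM FAM-cAMP and 1 uM cGMP activator in pH 7.2 Tris/MgCl2 buffer, 60 min at room temperature.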

[1] = Lab B, read-out: Rhesus PDE2 Ki (nM) Lab B
[2] = Lab A, read-out: Rhesus PDE2 Ki (nM) Lab A

Row | Ki [1] [nM] | Ki [2] [nM] | Compound
1 | 192 | – | Cc1nc(-c2cnn(C(C)c3ccc(C(F)(F)F)cc3)c2C)cc(=O)[nH]1 (single isomer, unassigned) [Example 82, (S)- or (R)-2-methyl-6-(5-methyl-1-{(1R)-1-[4-(trifluoromethyl)phenyl]ethyl}-1H-pyrazol-4-yl)pyrimidin-4(3H)-one]
2 | – | 6.2 | Cc1nc(-c2cnn(C(C)c3ccc(C(F)(F)F)cc3Cl)c2)cc(=O)[nH]1 (single isomer, unassigned) [Example 83, (R)- or (S)-6-(1-(1-(2-chloro-4-(trifluoromethyl)phenyl)ethyl)-1H-pyrazol-4-yl)-2-methylpyrimidin-4(3H)-one]
3 | – | 14.4 | CCc1nc(-c2cnn(C(C)c3ccc(C(F)(F)F)cc3F)c2)cc(=O)[nH]1 (single isomer, unassigned) [Example 85, (R)- or (S)-2-ethyl-6-(1-(1-(2-fluoro-4-(trifluoromethyl)phenyl)ethyl)-1H-pyrazol-4-yl)pyrimidin-4(3H)-one]
4 | – | 60 | Cc1nc(-c2cnn(C(C)c3ccc(C4CC4)cc3F)c2)cc(=O)[nH]1 (single isomer, unassigned) [Example 91, (R)- or (S)-6-(1-(1-(4-cyclopropyl-2-fluorophenyl)ethyl)-1H-pyrazol-4-yl)-2-methylpyrimidin-4(3H)-one]
5 | – | 40.8 | Cc1nc(-c2cnn(C(C)c3ccc(C4CC4)cc3C)c2)cc(=O)[nH]1 (single isomer, unassigned) [Example 94, (S)- or (R)-6-(1-(1-(4-cyclopropyl-2-methylphenyl)ethyl)-1H-pyrazol-4-yl)-2-methylpyrimidin-4(3H)-one]
6 | – | 10.7 | CCc1ccc(C(C)n2cc(-c3cc(=O)[nH]c(C)n3)cn2)c(Cl)c1 (single isomer, unassigned) [Example 99, (R)- or (S)-6-(1-(1-(2-chloro-4-ethylphenyl)ethyl)-1H-pyrazol-4-yl)-2-methylpyrimidin-4(3H)-one]
7 | – | 25.4 | CCc1ccc(C(C)n2cc(-c3cc(=O)[nH]c(C)n3)cn2)c(F)c1 (single isomer, unassigned) [Example 101, (R)- or (S)-6-(1-(1-(4-ethyl-2-fluorophenyl)ethyl)-1H-pyrazol-4-yl)-2-methylpyrimidin-4(3H)-one]
8 | 130 | – | Cc1nc(-c2cnn(C(C)c3ccc(OC(F)(F)F)cc3)c2)cc(=O)[nH]1 (single isomer, unassigned) [Example 127, (R)- or (S)-2-methyl-6-(1-(1-(4-(trifluoromethoxy)phenyl)ethyl)-1H-pyrazol-4-yl)pyrimidin-4(3H)-one]
9 | 64.8 | – | COc1ccc(Cc2nc(-n3ccc(C(C)c4ccc(C(F)(F)F)cc4)n3)cc(=O)[nH]2)cc1OC (single isomer, unassigned) [Example 133, (R)- or (S)-2-(3,4-dimethoxybenzyl)-6-(3-(1-(4-(trifluoromethyl)phenyl)ethyl)-1H-pyrazol-1-yl)pyrimidin-4(3H)-one]
10 | 110 | – | COc1ccc(Cc2nc(-n3ccc(C(C)c4ccc(C(F)(F)F)cc4)n3)cc(=O)[nH]2)cc1OC (single isomer, unassigned) [Example 134, (R)- or (S)-2-(3,4-dimethoxybenzyl)-6-(3-(1-(4-(trifluoromethyl)phenyl)ethyl)-1H-pyrazol-1-yl)pyrimidin-4(3H)-one]
11 | 109 | – | Cc1nc(-c2cnn(C(C)c3ccc(C(F)(F)F)cc3F)c2)cc(=O)[nH]1 (single isomer, unassigned) [Example 135, (R)- or (S)-6-(1-(1-(2-fluoro-4-(trifluoromethyl)phenyl)ethyl)-1H-pyrazol-4-yl)-2-methylpyrimidin-4(3H)-one]
12 | 11.1 | 18.3 | Cc1nc(-c2cnn(C(C)c3ccc(C(F)(F)F)cc3F)c2)cc(=O)[nH]1 (single isomer, unassigned) [Example 136, (S)- or (R)-6-(1-(1-(2-fluoro-4-(trifluoromethyl)phenyl)ethyl)-1H-pyrazol-4-yl)-2-methylpyrimidin-4(3H)-one]
13 | 1.6 | 5.6 | COc1ccc(Cc2nc(-c3cnn(C(C)c4ccc(C(F)(F)F)cc4F)c3)cc(=O)[nH]2)cc1 (single isomer, unassigned) [Example 138, (R)- or (S)-6-(1-(1-(2-fluoro-4-(trifluoromethyl)phenyl)ethyl)-1H-pyrazol-4-yl)-2-(4-methoxybenzyl)pyrimidin-4(3H)-one]
14 | 19.1 | 52.1 | COc1ccc(Cc2nc(-c3cnn(C(C)c4ccc(C(F)(F)F)cc4F)c3)cc(=O)[nH]2)cc1 (single isomer, unassigned) [Example 139, (S)- or (R)-6-(1-(1-(2-fluoro-4-(trifluoromethyl)phenyl)ethyl)-1H-pyrazol-4-yl)-2-(4-methoxybenzyl)pyrimidin-4(3H)-one]
15 | 0.8 | 3 | COc1cccc(Cc2nc(-c3cnn(C(C)c4ccc(C(F)(F)F)cc4F)c3)cc(=O)[nH]2)c1 (single isomer, unassigned) [Example 140, (R)- or (S)-6-(1-(1-(2-fluoro-4-(trifluoromethyl)phenyl)ethyl)-1H-pyrazol-4-yl)-2-(3-methoxybenzyl)pyrimidin-4(3H)-one]
16 | 8.7 | 25.6 | COc1cccc(Cc2nc(-c3cnn(C(C)c4ccc(C(F)(F)F)cc4F)c3)cc(=O)[nH]2)c1 (single isomer, unassigned) [Example 141, (S)- or (R)-6-(1-(1-(2-fluoro-4-(trifluoromethyl)phenyl)ethyl)-1H-pyrazol-4-yl)-2-(3-methoxybenzyl)pyrimidin-4(3H)-one]
17 | 1.4 | 3.3 | COc1cc(Cc2nc(-c3cnn(C(C)c4ccc(C(F)(F)F)cc4F)c3)cc(=O)[nH]2)ccc1F (single isomer, unassigned) [Example 142, (R)- or (S)-2-(4-fluoro-3-methoxybenzyl)-6-(1-(1-(2-fluoro-4-(trifluoromethyl)phenyl)ethyl)-1H-pyrazol-4-yl)pyrimidin-4(3H)-one]
18 | 10.9 | 21.3 | COc1cc(Cc2nc(-c3cnn(C(C)c4ccc(C(F)(F)F)cc4F)c3)cc(=O)[nH]2)ccc1F (single isomer, unassigned) [Example 143, (S)- or (R)-2-(4-fluoro-3-methoxybenzyl)-6-(1-(1-(2-fluoro-4-(trifluoromethyl)phenyl)ethyl)-1H-pyrazol-4-yl)pyrimidin-4(3H)-one]
19 | – | 31.5 | COc1ccc(Cc2nc(-c3cnn(C(C)c4ccc(C(F)(F)F)cc4F)c3)cc(=O)[nH]2)cc1F (single isomer, unassigned) [Example 146, (R)- or (S)-6-(1-(1-(2-fluoro-4-(trifluoromethyl)phenyl)ethyl)-1H-pyrazol-4-yl)-2-(3-fluoro-4-methoxybenzyl)pyrimidin-4(3H)-one]
20 | – | 3.6 | COc1ccc(Cc2nc(-c3cnn(C(C)c4ccc(C(F)(F)F)cc4F)c3)cc(=O)[nH]2)cc1F (single isomer, unassigned) [Example 147, (S)- or (R)-6-(1-(1-(2-fluoro-4-(trifluoromethyl)phenyl)ethyl)-1H-pyrazol-4-yl)-2-(3-fluoro-4-methoxybenzyl)pyrimidin-4(3H)-one]
21 | – | 47.9 | Cc1ccc(C(C)n2cc(-c3cc(=O)[nH]c(C)n3)cn2)c(Cl)c1 (single isomer, unassigned) [Example 148, (R)- or (S)-6-(1-(1-(2-chloro-4-methylphenyl)ethyl)-1H-pyrazol-4-yl)-2-methylpyrimidin-4(3H)-one]
